Values of other authors in patent US7108866B1, “Chronotherapeutic diltiazem formulations and the administration thereof” (Biovall Laboratories International SRL, priority 1999, dated 2006).

Conditions: at steady state

Tmax: 2 to 6 h
SMILES: COc1ccc([C@@H]2Sc3ccccc3N(CCN(C)C)C(=O)[C@@H]2OC(C)=O)cc1 [Diltiazem]
